Results from ChEMBL document CHEMBL3822398, “Design, synthesis and in vitro biological evaluation of short-chain C12-sphinganine and its 1,2,3-triazole analogs as potential antimicrobial and anti-biofilm agents” (Eur J Med Chem, 2016).
≈ marks a conversion by molar mass, not a printed value.

tested on: Candida albicans; assay: Antifungal activity against Candida albicans MTCC 7315 incubated for 24 hrs at 30 degC by well diffusion method; format: functional; conditions: MTCC 7315, 24 h

Row | MIC | Compound
1 | 31.2 µg/mL (≈ 144 µM) | CCCCCCCCC[C@@H](O)[C@@H](N)CO

tested on: Candida albicans; assay: Fungicidal activity against Candida albicans MTCC 3018 incubated for 24 hrs; format: functional; conditions: MTCC 3018, 24 h

Row | Compound | MFC
2 | CCCCCCCCC[C@@H](O)[C@@H](N)CO | 15.6 µg/mL (≈ 71.8 µM)

tested on: Candida albicans; assay: Fungicidal activity against Candida albicans MTCC 183 incubated for 24 hrs; format: functional; conditions: MTCC 183, 24 h

Row | Compound | MFC
3 | CCCCCCCCC[C@@H](O)[C@@H](N)CO | 15.6 µg/mL (≈ 71.8 µM)

tested on: [Candida] aaseri; assay: Fungicidal activity against Candida aaseri MTCC 1962 incubated for 24 hrs; format: functional; conditions: Yamadazyma aaseri, MTCC 1962, 24 h

Row | Compound | MFC
4 | CCCCCCCCC[C@@H](O)[C@@H](N)CO | 31.2 µg/mL (≈ 144 µM)

tested on: Pichia sporocuriosa; assay: Fungicidal activity against Issatchenkia hanoiensis MTCC 4755 incubated for 24 hrs; format: functional; conditions: MTCC 4755, 24 h

Row | Compound | MFC
5 | CCCCCCCCC[C@@H](O)[C@@H](N)CO | 15.6 µg/mL (≈ 71.8 µM)

tested on: Candida albicans; assay: Antifungal activity against Candida albicans MTCC 4748 incubated for 24 hrs at 30 degC by well diffusion method; format: functional; conditions: MTCC 4748, 24 h

Row | MIC | Compound
6 | 31.2 µg/mL (≈ 144 µM) | CCCCCCCCC[C@@H](O)[C@@H](N)CO

tested on: Staphylococcus aureus; assay: Antibacterial activity against Staphylococcus aureus MLS16 MTCC 2940 incubated for 24 hrs at 37 degC by well diffusion method; format: functional; conditions: MLS16 MTCC 2940, 24 h

Row | MIC | Compound
7 | 31.2 µg/mL (≈ 144 µM) | CCCCCCCCC[C@@H](O)[C@@H](N)CO

tested on: Candida albicans; assay: Fungicidal activity against Candida albicans MTCC 1637 incubated for 24 hrs; format: functional; conditions: MTCC 1637, 24 h

Row | Compound | MFC
8 | CCCCCCCCC[C@@H](O)[C@@H](N)CO | 15.6 µg/mL (≈ 71.8 µM)

tested on: Escherichia coli; assay: Bactericidal activity against Escherichia coli MTCC 739 incubated for 24 hrs; format: functional; conditions: MTCC 739, 24 h

Row | Compound | MBC
9 | CCCCCCCCC[C@@H](O)[C@@H](N)CO | 31.2 µg/mL (≈ 144 µM)

tested on: Pichia kudriavzevii; assay: Antifungal activity against Candida krusei MTCC 3020 incubated for 24 hrs at 30 degC by well diffusion method; format: functional; conditions: MTCC 3020, 24 h

Row | MIC | Compound
10 | 15.6 µg/mL (≈ 71.8 µM) | CCCCCCCCC[C@@H](O)[C@@H](N)CO

tested on: Bacillus subtilis; assay: Bactericidal activity against Bacillus subtilis MTCC 121 incubated for 24 hrs; format: functional; conditions: MTCC 121, 24 h

Row | Compound | MBC
11 | CCCCCCCCC[C@@H](O)[C@@H](N)CO | > 250 µg/mL

tested on: Candida albicans; assay: Antifungal activity against Candida albicans MTCC 227 incubated for 24 hrs at 30 degC by well diffusion method; format: functional; conditions: MTCC 227, 24 h

Row | MIC | Compound
12 | 31.2 µg/mL (≈ 144 µM) | CCCCCCCCC[C@@H](O)[C@@H](N)CO

tested on: Candida albicans; assay: Antifungal activity against Candida albicans MTCC 3018 incubated for 24 hrs at 30 degC by well diffusion method; format: functional; conditions: MTCC 3018, 24 h

Row | MIC | Compound
13 | 7.8 µg/mL (≈ 35.9 µM) | CCCCCCCCC[C@@H](O)[C@@H](N)CO

tested on: Candida albicans; assay: Fungicidal activity against Candida albicans MTCC 7315 incubated for 24 hrs; format: functional; conditions: MTCC 7315, 24 h

Row | Compound | MFC
14 | CCCCCCCCC[C@@H](O)[C@@H](N)CO | 62.5 µg/mL (≈ 288 µM)

tested on: Raoultella planticola; assay: Antibacterial activity against Klebsiella planticola MTCC 530 incubated for 24 hrs at 37 degC by well diffusion method; format: functional; conditions: MTCC 530, 24 h

Row | Compound | MIC
15 | CCCCCCCCC[C@@H](O)[C@@H](N)CO | 15.6 µg/mL (≈ 71.8 µM)

tested on: Candida parapsilosis; assay: Fungicidal activity against Candida parapsilosis MTCC 1744 incubated for 24 hrs; format: functional; conditions: Lodderomyces parapsilosis, MTCC 1744, 24 h

Row | Compound | MFC
16 | CCCCCCCCC[C@@H](O)[C@@H](N)CO | 62.5 µg/mL (≈ 288 µM)

tested on: Staphylococcus aureus; assay: Bactericidal activity against Staphylococcus aureus MTCC 96 incubated for 24 hrs; format: functional; conditions: MTCC 96, 24 h

Row | Compound | MBC
17 | CCCCCCCCC[C@@H](O)[C@@H](N)CO | > 250 µg/mL

tested on: Pichia sporocuriosa; assay: Antifungal activity against Issatchenkia hanoiensis MTCC 4755 incubated for 24 hrs at 30 degC by well diffusion method; format: functional; conditions: MTCC 4755, 24 h

Row | MIC | Compound
18 | 15.6 µg/mL (≈ 71.8 µM) | CCCCCCCCC[C@@H](O)[C@@H](N)CO

tested on: Pseudomonas aeruginosa; assay: Antibacterial activity against Pseudomonas aeruginosa MTCC 2453 incubated for 24 hrs at 37 degC by well diffusion method; format: functional; conditions: MTCC 2453, 24 h

Row | MIC | Compound
19 | > 250 µg/mL | CCCCCCCCC[C@@H](O)[C@@H](N)CO

tested on: Candida albicans; assay: Antifungal activity against Candida albicans MTCC 3958 incubated for 24 hrs at 30 degC by well diffusion method; format: functional; conditions: MTCC 3958, 24 h

Row | MIC | Compound
20 | 15.6 µg/mL (≈ 71.8 µM) | CCCCCCCCC[C@@H](O)[C@@H](N)CO
